Results taken from patent publication US9156862B2, “Silylated azulenyl nitrone spin traps as chromotropic superoxide detectors” (THE FLORDIA INTERNATIONAL UNIVERSITY BOARD OF TRUSTEES, priority 2011, dated 2015).
Each block holds one compound with its values, some of them ahead of it.

Columns and labels:
[1] = Fluorescence and quantum yield of superoxide trapping product in ethanol; assay type: physicochemical; conditions: excitation wavelength 390 nm
Experimental: The UV-vis (ultra visible) absorption spectrum and fluorescence of chromotropic amide 74 was measured in ethanol. […] The fluorescence signal, indicated by red signal, was obtained by irradiating at the excitation wavelength 390 nm as shown in the spectrum. The wavelength dependence of the intensity of emitted light has been recorded at ˜490 nm (emission). The quantum yield of amide was measured at 2.7%. […] This, in addition to its chromotropic behavior, may bring an advantage over conventional cyclic nitrones which require ESR for superoxide detection.
All of the moisture sensitive reactions have been carried out using syringe septum rubber cap technique under N2 or Ar atmosphere or in a vial by flushing N2 or Ar gas into it. […] All of the reactions were monitored by TLC analysis (Whatman pre-coated silica gel F254 plates, 250 μm layer thickness), and visualization was achieved by 254 nm UV light. The crude reaction mixtures have been purified by column chromatography using 60 A (200-300 mess) on silica gel. ^1H and ^13C NMR spectra were recorded on Bruker AVANCE-400 spectrometer in CDCl3. Chemical shifts were measured in parts per million with residual solvent peak used as an internal standard. ^1H NMR spectra were run at 400 MHz and ^13C NMR spectra were recorder at […] with proton decoupled sequence. […] UV-vis spectrum was recorded using a Varian Cary 50 Bio spectrophotometer. […]

[2] = Superoxide trapping: reaction of nitrone with potassium superoxide and crown ether in benzene; conditions: for colour change / coloured product upon reaction with potassium superoxide: potassium superoxide (3 or 6 equiv.); for trapping of superoxide radical anion: in vitro, yielding UV-VIS identifiable orange products
Description: Thus, the amounts of potassium superoxide and crown ether were increased to 5 equivalents. Still no product was observed. The result could be due to the fact that not enough superoxide radical anion was present because of poor solubility of potassium superoxide. Therefore, 20 equivalents of potassium superoxide and crown ether were directly treated with nitrone 22. These conditions gave a product in very low yield which was impossible to identify. Finally, nitrone 22 was directly treated using 6 equivalents of potassium superoxide. […] The product was identified as aldehyde 67 by observing the aldehyde-proton signal and the up-field shifting of the ethyl signal of the azulene ring.
The detection of superoxide with azulenysilane mononitrone 23 was based on the previous method as described (vida supra). Six equivalents of potassium superoxide were used as before. As mentioned earlier, the previous reaction was monitored by observing an orange product on TLC. […] Based on the previous mechanism, it was expected to obtain the end product bis-aldehyde 72. However, ^1H NMR spectral information of the orange end product indicated the loss of the silyl group, and presence of only the mono-aldehyde. The low resolution mass spectrum detected a MH^+ of 448. Unfortunately, it was not possible to purify enough for the NMR characterization. […] It is believed that the superoxide spin adduct that formed was unstable and fragmented into another compound rather than the expected one. The loss of the silyl group could result after rearrangement via a nucleophilic attack on silicon by a second superoxide anion since an excess of superoxide anion was used and due to the high affinity of silicon towards oxygen.
The unidentified end product from superoxide radical anion with nitrone 23 led us to synthesize an analogue, the isoxazoline azulenylsilanenitrone 24, and test it for its possible utility in superoxide detection. Using the same method as described earlier, superoxide was solubilized in benzene by employing in acrown ether. The only difference in this case was the use of three equivalents of potassium superoxide instead of six equivalents. […] As in the previous case, aldehyde product 73 was expected to be formed. […] With HRMS and NMR spectral analyses, the orange product was identified as amide 74.
Guanylhydrazone nitrone 25 is a congener of nitrone 24. Incorporation of guanylhydrazone moiety may make it mitochondriotropic, and thereby render it useful to detect superoxide anion present in the mitochondria. […] The brownish orange end product was isolated and identified as amide 80 using low resolution mass spectrum (MH^+=654) which is analogous to the end product 74. In addition to amide 80, a trace of another orange product was also observed which is identified as amide 81 (MH^+=768) analogous to amide 79.
6 mg of nitrone 22 (0.0163 mmol) was mixed with 6.9 mg of potassium superoxide (0.097 mmol, 6 equiv.) and 8.6 mg of crown ether (0.032 mmol, 2 equiv.) and dissolved the mixture in 1 ml of benzene. The reaction was stirred for 3 hr at room temperature. The product was washed with 10 ml of saturated sodium chloride several times, dried over magnesium sulfate and concentrated. The mixture was purified by column chromatography using 5:5 hexane:ethylacetate to give 2.2 mg of crude 67 (43%). It was not possible to obtain 67 pure enough for definitive NMR characterization. […] When the same reaction was stirred for three days, another orange product was observed. […] Impossible to isolate this product in pure form, the structure was not identified.
20 mg of nitrone 24 was treated with 7.5 mg of potassium superoxide and 18.6 mg of crown ether in 1 ml of benzene. The reaction was stirred for 16 hr at room temperature. The mixture was then washed with 10 ml of saturated sodium chloride several times, dried and concentrated. […]

[3] = in cyclohexane; cited from earlier work
[4] = assay type: physicochemical
Experimental: Solutol HS 15 is a non-ionic solubilizer and emulsifying agent produced from 1 mole of 12-hydroxystearic acids and 15 moles of ethylene oxide. […] To prepare the concentration of 0.64 mg/ml of nitrone 25 in 3:7 solutol HS 15:1% saline solution, 1 ml of solutol HS 15 was heated until it turned into a clear liquid and cooled to room temperature. Meanwhile, 2.1 mg of nitrone 25 was crushed to a fine powder and dissolved in 1 ml of clear solutol HS 15. It was then diluted with 2.3 ml of 1% saline solution in water with frequent shaking and warming. It was then cool to room temperature to obtained green solution. The green solution was kept in a freezer, and found to be stable. The aqueous formulation of nitrone 25 with solutol HS 15 is believed to be amenable for mitochondrial superoxide detection and other biological studies.

[5] = crown ether, benzene, room temperature

fluorescence emission wavelength [1]: ~490 nm
fluorescence quantum yield [1]: 2.7%
SMILES: CC(C)(C)NC(=O)c1c2cccccc-2c2c(NC(C)(C)C)c(C(=O)c3ccccc3)c(=N)oc12 [amide 74]

SMILES: Cc1c2cccccc-2c(C)c1[Si](C)(C)C(C)(C)C [nitrone 40, 2-tert-butyldimethylsilyl-1,3-dimethylazulene]
colour change / coloured product upon reaction with potassium superoxide [2, 5]: turned into brownish orange

SMILES: CC(C)(C)/[N+]([O-])=C/c1c2cccccc-2c(C=O)c1[Si](C)(C)C(C)(C)C [nitrone 23, 2-tert-butyldimethylsilyl-3-formyl-azulene-1-nitrone]
trapping of superoxide radical anion [2]: trap superoxide radical anion efficiently
colour change / coloured product upon reaction with potassium superoxide [2, 5]: turned completely from green to orange
time for reaction mixture to turn completely from green to orange ([2]; six equivalents of potassium superoxide, crown ether, benzene): 90 min

SMILES: CC(C)(C)N1OC(c2ccccc2)=C(C#N)C1c1c2cccccc-2c(/C=[N+](\[O-])C(C)(C)C)c1[Si](C)(C)C(C)(C)C (stereo not shown) [nitrone 24, 2-tert-butyl-3-[2-(tert-butyldimethyl-silanyl)-3-nitrone-azulen-1-yl]-5-phenyl-2,3-dihydro-isoxazole-4-carbonitrile]
trapping of superoxide radical anion [2]: trap superoxide radical anion efficiently
colour change / coloured product upon reaction with potassium superoxide [2, 5]: completely turned into orange solution

SMILES: C(#Cc1c2ccccc2c(C#Cc2ccccc2)c2ccccc12)c1ccccc1 [9,10-bis(phenylethynyl)anthracene]
quantum yield (QY) of fluorescence standard [3]: 1.0

SMILES: [H]/N=C(\N)N/N=C/c1cccc(C#Cc2cccc(C3=C(C#N)C(c4c5cccccc-5c(/C=[N+](\[O-])C(C)(C)C)c4[Si](C)(C)C(C)(C)C)N(C(C)(C)C)O3)c2)c1 (stereo not shown) [nitrone 25, 2-tert-butyl-3-[2-(tert-butyldimethyl-silanyl)-3-nitrone-azulen-1-yl]-5-[3-(3-guanylhydrazone-phenylethynyl)-phenyl]-2,3-dihydro-isoxazole-4-carbonitrile]
concentration in solution [4]: 640 µg/mL
effect of solutol HS 15 on solubility in water [4]: increase the solubility
stability of solution [4]: stable
water solubility [4]: poorly water soluble
trapping of superoxide radical anion [2]: trap superoxide efficiently
trapping of superoxide radical anion ([2]; listed as 25): trap superoxide radical anion efficiently

SMILES: CCc1c2cccccc-2c(/C=[N+](\[O-])C(C)(C)C)c1[Si](C)(C)C(C)(C)C [nitrone 22, 2-terbutyldimethylsilyl-1ethyl-3-azulenylnitrone]
trapping of superoxide radical anion [2]: trap superoxide radical anion efficiently
reaction with superoxide ([2]; one to five equivalents of potassium superoxide and one equivalent of crown ether in benzene, room temperature): No reaction was observed
colour change / coloured product upon reaction with potassium superoxide [2, 5]: less polar orange product

SMILES: CCc1c2cccccc-2c(C=O)c1O[Si](C)(C)C(C)(C)C [aldehyde 67]
stability of aldehyde end product ([2]; under the superoxide reaction conditions, decomposed as reaction proceeded): very unstable
